According to ChEMBL document CHEMBL1201862, “PubChem BioAssay data set” (2004):
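Method: 48-hour compound exposure of cells in 96-well plates, five concentrations, linear interpolation of endpoints. GI50 marks 50% less growth.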 The source made the active and inactive calls. No stated cut-off is given here; in the data, active = GI50 up to about 1.1 µM and inactive = higher.

Key:
Assay in all cases: NCI-60 cell line screen, 48 h
[1] = system: ACHN
[2] = system: CAKI-1
[3] = system: COLO 205
[4] = system: DU-145
[5] = system: HCT-116
[6] = system: Hs-578T
[7] = system: IGROV-1
[8] = system: NCI-H226
[9] = system: NCI-H460
[10] = system: NCI/ADR-RES
[11] = system: OVCAR-3
[12] = system: OVCAR-5
[13] = system: OVCAR-8
[14] = system: SF-295
[15] = system: SF-539
[16] = system: SNB-19
[17] = system: T47D
[18] = system: MOLT-4
[19] = system: UO-31
[20] = system: MDA-MB-231

| Structure (SMILES) | GI50 [1] | GI50 [2] | GI50 [3] | GI50 [4] | GI50 [5] | GI50 [6] | GI50 [7] | GI50 [8] | GI50 [9] | GI50 [10] | GI50 [11] | GI50 [12] | GI50 [13] | GI50 [14] | GI50 [15] | GI50 [16] | GI50 [17] | GI50 [18] | GI50 [19] | GI50 [20] |
| --- | --- | --- | --- | --- | --- | --- | --- | --- | --- | --- | --- | --- | --- | --- | --- | --- | --- | --- | --- | --- |
| CCOP(=O)(C=C=C(C)C)OCC | > 100 µM (inactive) | > 100 µM (inactive) | > 100 µM (inactive) | > 100 µM (inactive) | > 100 µM (inactive) | > 100 µM (inactive) | > 100 µM (inactive) | > 100 µM (inactive) | > 100 µM (inactive) | > 100 µM (inactive) | > 100 µM (inactive) | > 100 µM (inactive) | > 100 µM (inactive) | > 100 µM (inactive) | > 100 µM (inactive) | > 100 µM (inactive) | > 100 µM (inactive) | – | – | – |
| COc1cc(CC(C)N)ccc1O (stereo unspecified) | > 100 µM (inactive) | > 100 µM (inactive) | > 100 µM (inactive) | > 100 µM (inactive) | > 100 µM (inactive) | > 100 µM (inactive) | > 100 µM (inactive) | > 100 µM (inactive) | > 100 µM (inactive) | > 100 µM (inactive) | > 100 µM (inactive) | > 100 µM (inactive) | > 100 µM (inactive) | > 100 µM (inactive) | > 100 µM (inactive) | > 100 µM (inactive) | > 100 µM (inactive) | > 100 µM (inactive) | > 100 µM (inactive) | – |
| CN(C)c1ccc(C(c2ccc(Cl)cc2)c2ccc(N(C)C)cc2)cc1 | > 100 µM (inactive) | > 100 µM (inactive) | 34.7 µM (inactive) | > 100 µM (inactive) | > 100 µM (inactive) | 90.6 µM (inactive) | > 100 µM (inactive) | – | > 100 µM (inactive) | > 100 µM (inactive) | > 100 µM (inactive) | > 100 µM (inactive) | 99.1 µM (inactive) | > 100 µM (inactive) | > 100 µM (inactive) | > 100 µM (inactive) | 64.7 µM (inactive) | > 100 µM (inactive) | > 100 µM (inactive) | > 100 µM (inactive) |
| N#Cc1cc(N(CCCl)CCCl)c([N+](=O)[O-])cc1[N+](=O)[O-] | 18.1 µM (inactive) | 11.1 µM (inactive) | > 100 µM (inactive) | 32.4 µM (inactive) | > 100 µM (inactive) | > 100 µM (inactive) | > 100 µM (inactive) | – | 18.6 µM (inactive) | > 100 µM (inactive) | > 100 µM (inactive) | > 100 µM (inactive) | > 100 µM (inactive) | > 100 µM (inactive) | > 100 µM (inactive) | > 100 µM (inactive) | 11.4 µM (inactive) | 24 µM (inactive) | > 100 µM (inactive) | > 100 µM (inactive) |
| O=C(NN1C(=O)/C(=C/c2ccc(Cl)cc2)N=C1c1ccccc1)c1c(Cl)c(Cl)c(Cl)c(Cl)c1-c1nc2ccccc2[nH]1 | 22.1 µM (inactive) | 18.9 µM (inactive) | 22.6 µM (inactive) | 17.7 µM (inactive) | 15.6 µM (inactive) | 13.5 µM (inactive) | 2.47 µM (inactive) | 8 µM (inactive) | < 0.01 µM (active) | 15.3 µM (inactive) | 33 µM (inactive) | 29.1 µM (inactive) | 27.9 µM (inactive) | < 0.01 µM (active) | 23.8 µM (inactive) | 22.1 µM (inactive) | 0.582 µM (active) | 6.93 µM (inactive) | 16.3 µM (inactive) | – |
| CCN(CC)C(=O)N[C@@H](CC(C)C)C(=O)NC | > 100 µM (inactive) | > 100 µM (inactive) | > 100 µM (inactive) | > 100 µM (inactive) | > 100 µM (inactive) | > 100 µM (inactive) | > 100 µM (inactive) | – | > 100 µM (inactive) | > 100 µM (inactive) | > 100 µM (inactive) | > 100 µM (inactive) | > 100 µM (inactive) | > 100 µM (inactive) | – | > 100 µM (inactive) | > 100 µM (inactive) | > 100 µM (inactive) | > 100 µM (inactive) | > 100 µM (inactive) |
| Oc1ccc2oc3c(O)c4ccccc4cc3c2c1 | 2.12 µM (inactive) | 5.32 µM (inactive) | 10.6 µM (inactive) | 3.27 µM (inactive) | 0.296 µM (active) | 23.2 µM (inactive) | 0.851 µM (active) | – | 23.5 µM (inactive) | 3.03 µM (inactive) | 3.53 µM (inactive) | – | 4.56 µM (inactive) | – | 1.75 µM (inactive) | 83.4 µM (inactive) | 20.3 µM (inactive) | 1.07 µM (active) | 0.695 µM (active) | 12.8 µM (inactive) |
| C[C@@H](C(=O)O)N1C(c2ccco2)=C(/C(C=O)=C\c2ccco2)C(=O)/C1=C\c1ccco1 | > 100 µM (inactive) | > 100 µM (inactive) | > 100 µM (inactive) | > 100 µM (inactive) | > 100 µM (inactive) | > 100 µM (inactive) | > 100 µM (inactive) | – | – | > 100 µM (inactive) | > 100 µM (inactive) | > 100 µM (inactive) | > 100 µM (inactive) | > 100 µM (inactive) | > 100 µM (inactive) | > 100 µM (inactive) | > 100 µM (inactive) | > 100 µM (inactive) | > 100 µM (inactive) | > 100 µM (inactive) |
| CC(C)(C)C(=O)C(C(c1ccccc1)N1CCOCC1)N1CCOCC1 (stereo unspecified) | > 100 µM (inactive) | > 100 µM (inactive) | – | > 100 µM (inactive) | > 100 µM (inactive) | > 100 µM (inactive) | > 100 µM (inactive) | – | > 100 µM (inactive) | > 100 µM (inactive) | > 100 µM (inactive) | > 100 µM (inactive) | > 100 µM (inactive) | > 100 µM (inactive) | – | > 100 µM (inactive) | > 100 µM (inactive) | > 100 µM (inactive) | > 100 µM (inactive) | > 100 µM (inactive) |
| CC1(C)O[C@H]2Cn3c(c(C#N)c4ccccc43)[C@H]2O1 | > 100 µM (inactive) | 85.1 µM (inactive) | > 100 µM (inactive) | > 100 µM (inactive) | > 100 µM (inactive) | > 100 µM (inactive) | > 100 µM (inactive) | – | > 100 µM (inactive) | > 100 µM (inactive) | > 100 µM (inactive) | > 100 µM (inactive) | – | > 100 µM (inactive) | > 100 µM (inactive) | > 100 µM (inactive) | > 100 µM (inactive) | – | > 100 µM (inactive) | > 100 µM (inactive) |
| C=CC(C)(C)/C=C/c1ccc(O)cc1 | 28.9 µM (inactive) | 44.7 µM (inactive) | 35.5 µM (inactive) | 40.4 µM (inactive) | 31.3 µM (inactive) | 39.2 µM (inactive) | 44 µM (inactive) | – | 19.8 µM (inactive) | 47.9 µM (inactive) | 28.8 µM (inactive) | 46.6 µM (inactive) | 39.7 µM (inactive) | 27 µM (inactive) | 30.1 µM (inactive) | 44.3 µM (inactive) | 20 µM (inactive) | 38.5 µM (inactive) | – | 36.4 µM (inactive) |
| S=c1[nH]nc(Cn2c3ccc(Br)cc3c3nc4ccccc4nc32)n1C1CCCCC1 | 29.4 µM (inactive) | 34.2 µM (inactive) | – | 27.8 µM (inactive) | 12.1 µM (inactive) | – | 21.4 µM (inactive) | 20.5 µM (inactive) | 20.2 µM (inactive) | 27 µM (inactive) | 18.5 µM (inactive) | 32.5 µM (inactive) | 22.6 µM (inactive) | 16.7 µM (inactive) | 18.6 µM (inactive) | 43.5 µM (inactive) | 19.4 µM (inactive) | – | 18.2 µM (inactive) | 36.5 µM (inactive) |
| NC(=O)/C=C/c1c[nH]c2nccnc12 | 2.71 µM (inactive) | 3.08 µM (inactive) | 1.67 µM (inactive) | 3.44 µM (inactive) | 1.59 µM (inactive) | – | 3.83 µM (inactive) | 0.78 µM (active) | 3.7 µM (inactive) | 2.89 µM (inactive) | 2.34 µM (inactive) | 0.15 µM (active) | 2.86 µM (inactive) | 3.26 µM (inactive) | 2.24 µM (inactive) | 0.973 µM (active) | 3.5 µM (inactive) | 0.641 µM (active) | 0.735 µM (active) | 3.71 µM (inactive) |
| COC(=O)/C=C/c1ccc2c(c1)CCC2 | 23.7 µM (inactive) | 17.4 µM (inactive) | – | 43.3 µM (inactive) | 22.3 µM (inactive) | > 100 µM (inactive) | 36.5 µM (inactive) | – | > 100 µM (inactive) | 24.5 µM (inactive) | 17.7 µM (inactive) | > 100 µM (inactive) | 53.5 µM (inactive) | 56 µM (inactive) | 72.8 µM (inactive) | 48.5 µM (inactive) | 11.3 µM (inactive) | 41.9 µM (inactive) | 45 µM (inactive) | 63.2 µM (inactive) |
| COc1cc(C2c3cc4c(cc3[C@@H](Nc3ccc(F)cc3)C3COC(=O)[C@H]23)OCO4)cc(OC)c1O (stereo partly specified) | 0.476 µM (active) | 0.514 µM (active) | 2.03 µM (inactive) | 0.368 µM (active) | 2.77 µM (inactive) | – | 5.31 µM (inactive) | 0.897 µM (active) | 0.0468 µM (active) | 3.97 µM (inactive) | 5.04 µM (inactive) | 5.3 µM (inactive) | 2.53 µM (inactive) | 0.834 µM (active) | 1.86 µM (inactive) | 1.38 µM (inactive) | 0.605 µM (active) | 0.0535 µM (active) | 1.65 µM (inactive) | 4.33 µM (inactive) |
